Reference: PubChem BioAssay AID330 (DTP/NCI, 2004)
Several values for one entry are separate records, joined by “and”; a condition that tells them apart may be missing. Identical values can stand only once. Toxic doses and inconclusive results are not listed. The calls were made as follows: active = survival T/C of 150% or more; inactive = T/C below 125% in these data.

Tested on: P388 leukemia ip, CD2F1 mice, survival T/C
Assay: NCI In Vivo Anticancer Drug Screen. Data for tumor model P388 Leukemia (intraperitoneal) in CD2F1 (CDF1) mice
Conditions: endpoint: median survival time, higher = longer survival
Method in brief: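 Mice carrying the transplanted tumor received test compound or vehicle. Survival was recorded in each group, and the value is the treated-group measurement divided by that of the vehicle-treated control group.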

[1] = dose: 100.0 mg/kg/injection, schedule: Q01DX009 (ip), vehicle: saline with Tween-80
[2] = dose: 200.0 mg/kg/injection, schedule: Q01DX009 (ip), vehicle: saline with Tween-80
[3] = dose: 400.0 mg/kg/injection, schedule: Q01DX009 (ip), vehicle: saline with Tween-80
[4] = dose: 100.0 mg/kg/injection, schedule: Q01DX001 (ip), vehicle: saline with Tween-80
[5] = dose: 200.0 mg/kg/injection, schedule: Q01DX001 (ip), vehicle: saline with Tween-80
[6] = dose: 400.0 mg/kg/injection, schedule: Q01DX001 (ip), vehicle: saline with Tween-80
[7] = dose: 50.0 mg/kg/injection, schedule: Q01DX009 (ip), vehicle: saline with Tween-80

Measured: T/C

CCCCCc1ccccc1
inactive: [1] 106 % of control | [2] 109 % of control

NC(N)=NS(=O)(=O)c1ccc(N=Nc2c(O)n(-c3ccccc3)c(=S)n(-c3ccccc3)c2=O)cc1
inactive: dose: 60.0 mg/kg/injection, schedule: Q01DX005 (ip), vehicle: Klucel (hydroxypropylcellulose) (HPC) 105 % of control | dose: 120.0 mg/kg/injection, schedule: Q01DX005 (ip), vehicle: Klucel (hydroxypropylcellulose) (HPC) 99 % of control | dose: 240.0 mg/kg/injection, schedule: Q01DX005 (ip), vehicle: Klucel (hydroxypropylcellulose) (HPC) 99 % of control

CCOC(=O)c1c(C)csc1NC(C)=O
inactive: [1] 120 % of control | [2] 115 % of control | [3] 115 % of control

CC1C(O)[C@@]2(OC[C@@]34C(=O)CC5(O)[C@H](CCC6Cc7nc8c(nc7C[C@]65C)CC5CC[C@@H]6C7=C[C@H]9O[C@@]%10(O[C@@](C)(CO)C[C@@H]%10O)C(C)[C@@]9(O)[C@]7(C)[C@@H](O)CC6[C@]5(C)C8)C3=CC[C@H]4C2C)OC1(C)C (some centres undefined)
inactive: dose: 10.0 micrograms/kg/injection, schedule: Q01DX005 (ip), vehicle: saline + alcohol 117 % of control and 121 % of control | dose: 20.0 micrograms/kg/injection, schedule: Q01DX005 (ip), vehicle: saline + alcohol 115 % of control and 117 % of control | dose: 40.0 micrograms/kg/injection, schedule: Q01DX005 (ip), vehicle: saline + alcohol 123 % of control and 124 % of control | dose: 40.0 micrograms/kg/injection, schedule: Q01DX009 (ip), vehicle: saline + alcohol 115 % of control

OCCCCc1ccccc1
inactive: [4] 104 % of control | [5] 100 % of control | [6] 100 % of control

Nc1ccc2cc3c(nc2n1)[nH]c1ccccc13
inactive: dose: 1.56 mg/kg/injection, schedule: Q01DX009 (ip), vehicle: saline with Tween-80 97 % of control | dose: 3.12 mg/kg/injection, schedule: Q01DX009 (ip), vehicle: saline with Tween-80 103 % of control | dose: 6.25 mg/kg/injection, schedule: Q01DX009 (ip), vehicle: saline with Tween-80 100 % of control | dose: 12.5 mg/kg/injection, schedule: Q01DX009 (ip), vehicle: saline with Tween-80 102 % of control | dose: 25.0 mg/kg/injection, schedule: Q01DX009 (ip), vehicle: saline with Tween-80 118 % of control

CC1=CC(O)C(O)C2(C)C1CC1OC(=O)C(OC(=O)CC(C)C)C3C(C)C(O)C4(O)OCC13C42 (centres undefined) (tested in a mixture with another compound)
inactive: dose: 125.0 micrograms/kg/injection, schedule: Q01DX009 (ip), vehicle: other 104 % of control | dose: 250.0 micrograms/kg/injection, schedule: Q01DX009 (ip), vehicle: other 102 % of control | dose: 500.0 micrograms/kg/injection, schedule: Q01DX009 (ip), vehicle: other 103 % of control | dose: 1000.0 micrograms/kg/injection, schedule: Q01DX009 (ip), vehicle: other 108 % of control

CC(C)c1ccc(OS(=O)(=O)C(F)(F)C(F)(F)C(F)(F)C(F)(F)F)cc1
inactive: [7] 99 % of control | [1] 105 % of control

Cc1cc(N)c([N+](=O)[O-])cc1C
inactive: [7] 101 % of control | [1] 100 % of control | [2] 96 % of control | [3] 95 % of control

O=c1[nH]c2ccccc2n1C1CCN(CC(O)C2COc3ccccc3O2)CC1 (centres undefined)
inactive: [7] 94 % of control | [1] 106 % of control | [2] 103 % of control

C/C(=N\NC(=O)c1ccccc1)c1cccc(/C(C)=N/NC(=O)c2ccccc2)n1.CC(=O)[O-].CC(=O)[O-].[Zn+2]
inactive: [4] 95 % of control | [5] 104 % of control | [6] 100 % of control

Nc1cc2ccccc2cc1NS(=O)(=O)N1CCCCC1
inactive: dose: 50.0 mg/kg/injection, schedule: Q01DX009 (ip), vehicle: acetone 94 % of control | dose: 100.0 mg/kg/injection, schedule: Q01DX009 (ip), vehicle: acetone 101 % of control | dose: 200.0 mg/kg/injection, schedule: Q01DX009 (ip), vehicle: acetone 98 % of control
